Assay results from the METLIN SMRT retention time set (Domingo-Almenara et al. 2019).

Experiment: gradient 5% acetonitrile 3 min, to 50% in 2 min, to 85% in 15 min, held 3 min, 100 µL/min
Details: column: Zorbax Extend-C18 2.1 x 50 mm; eluents: water / acetonitrile, 0.1% formic acid
How it was run: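 The system's dead and dwell volumes were 40 μL and 900 μL, with a Zorbax Extend-C18 column (2.1 × 50 mm, 1.8 μm) run at 100 μL/min in water and acetonitrile containing 0.1% formic acid each. Pure standards were analyzed in mixtures of ~100 molecules by HPLC–quadrupole time-of-flight mass spectrometry in positive and negative ionization mode. Retention time was assigned from computationally picked, manually inspected adduct peaks.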

| RP-LC retention time | Structure (SMILES) |
| --- | --- |
| 729 s | CN(C)S(=O)(=O)N1CCc2nc(NC(=O)c3cccs3)sc2C1 |
| 883 s | O=C(Cc1cccs1)N1CCC(c2nc(-c3ccccc3)no2)C1 (stereo not given) |
| 615 s | O=C(C1CCCN(c2ncnc3c2nc2n3CCCCC2)C1)N1CCN(Cc2ccccc2)CC1 (stereo not given) |
| 672 s | CCOC(=O)c1cnc2nc(C)ccc2c1Nc1ccc(F)cc1 |
| 727 s | O=C(Cn1nc2c3ccc(Cl)cc3ncn2c1=O)Nc1ccccc1 |
| 769 s | CCNC(=O)CN1C(=O)CCCc2cc(S(=O)(=O)N3CCC(C)CC3)ccc21 |
| 684 s | CN(C)Cc1nc(-c2cn(C)c3ccccc23)no1 |
| 711 s | CC(=O)Nc1ccc(C2(C(=O)N3CCCCC3)CCC2)cc1 |
| 815 s | O=C(Nc1nccs1)c1csc(Nc2ccccc2)n1 |
| 1170 s | Cc1ccc(C)c(S(=O)(=O)N2CCc3nc(-c4ccccc4)ncc3C2)c1 |
| 819 s | CCn1c(SCC(=O)Nc2ccc3c(c2)OCO3)nnc1-c1cn(C)nc1-c1ccc(Cl)cc1 |
| 599 s | CNC(=O)[C@@H]1CN(C(=O)Cc2c(C)noc2C)C[C@H]1c1nc(C)no1 |
| 588 s | O=C(Cc1ccsc1)N1CCC(Nc2ncnc3c2CCC3)C1 (stereo not given) |
| 590 s | Nc1nc(Cl)nc2c1ncn2[C@@H]1O[C@H](CO)[C@@H](O)[C@H]1O |
| 862 s | Cc1cc(C)cc(N2CCC(NC(=O)Nc3ccccc3)C2=O)c1 (stereo not given) |
| 1220 s | CCn1ccc(-c2nc(-c3cccc(-c4csc(C5CC5)n4)c3)no2)n1 |
| 621 s | Nc1nc(SCC(=O)Nc2ccc(F)c(Cl)c2)n[nH]1 |
| 1180 s | Cc1ccc(-c2nc(-c3ccc(S(=O)(=O)N4CCC(C(=O)N5CCCC5)CC4)cc3)no2)cc1C |
| 782 s | O=C1CC(/C=C/c2ccccc2)Cc2nc(N3CCN(Cc4ccc5c(c4)OCO5)CC3)ncc21 (stereo not given) |
| 887 s | CCCCNC(=O)C1CCN(S(C)(=O)=O)c2cc(Cl)ccc2O1 (stereo not given) |
| 953 s | Cn1cc(S(=O)(=O)N2CCCCC2)cc1C(=O)NC1CCCCC1 |
| 669 s | COc1cccc2cc(C(=O)NCc3ccc(S(N)(=O)=O)cc3)oc12 |
| 657 s | COc1cccc(-c2nc(-c3ccc4c(c3)ncn4CCN3CCCCC3)no2)c1 |
| 728 s | O=C(Nc1nccs1)C1CCN(C(=O)c2cccc(C(F)(F)F)c2)CC1 |
| 772 s | O=C(NCc1csc(-c2cccs2)n1)C1CCN(C(=O)c2cccc(F)c2)CC1 |
| 829 s | CCOC(=O)C1CCN(C(=O)c2nnc(-c3ccc(S(=O)(=O)N(C)C)cc3)o2)CC1 |
| 871 s | N#Cc1cc2c(nc1SCC(=O)Nc1nccs1)CCCCC2 |

| RP-LC retention time | Structure (SMILES) |
| --- | --- |
| 684 s | COc1cccc(CNC(=O)NCCc2nc3cccnc3n2C2CCCC2)c1 |
| 835 s | Cc1ccc(N(C)S(=O)(=O)c2cc(-c3[nH]ncc3C(=O)N3CCCCC3)oc2C)cc1 |
| 1130 s | COC(=O)C1(C)CCCC2(C)c3cc(OC)ccc3C(=O)C(Br)C12 (stereo not given) |
| 582 s | Cc1n[nH]c(C)c1S(=O)(=O)N1CCOCC1 |
| 996 s | CCCCn1cc(S(=O)(=O)NCc2ccccc2Cl)c2cccnc21 |
| 932 s | Cc1nn2c(CNS(=O)(=O)c3ccc(Cl)cc3)c(-c3ccccc3)nc2s1 |
| 699 s | CSc1ccccc1NC(=O)c1coc(NC(=O)c2ccco2)n1 |
| 769 s | Cc1ccc(C2=NC3(CCN(C(=O)c4c[nH]c5ccccc45)CC3)ON2)cc1 |
| 1040 s | CCOc1ccc(C(=O)Nc2cc(Cl)ccc2C)nn1 |
| 592 s | O=C(NCCN1CCOCC1)c1nc(Nc2ccc(F)cc2)c2ccccc2n1 |
| 730 s | Cc1ccccc1NC(=O)CN1C(=O)NC2(CCCCC2)C1=O |
| 1010 s | Cc1cccc(-c2noc(C3CCCN3C(=O)Nc3ccc(F)cc3)n2)c1 (stereo not given) |
| 876 s | Cn1nc(N)c2ncc(C(Cl)(Cl)Cl)nc21 |
| 907 s | CCOc1cc(C(=O)N2CCN(c3cc(-c4cccs4)[nH]n3)CC2)cc(OCC)c1OCC |
| 766 s | O=C1COc2ccc(S(=O)(=O)N3CCC(C(=O)N4CCN(c5ccccc5)CC4)CC3)cc2N1 |
| 742 s | O=C(c1ccoc1)N1CCCC(OCc2nc(C3CC3)no2)C1 (stereo not given) |
| 562 s | COc1cn2c(cc1=O)C(=O)N(CCNC(=O)c1cc(=O)c3ccccc3o1)CC2 |
| 834 s | COc1ccc(F)cc1S(=O)(=O)N1C[C@@H]2C[C@H](NC(=O)c3cccs3)[C@H]1C2 |
| 690 s | CCCNC(=O)C1CCCN(c2nc(C)nc3onc(C)c23)C1 (stereo not given) |
| 764 s | CCc1noc(-c2cnc3nc(C)ccc3c2Nc2ccc(OC)cc2)n1 |
| 591 s | COCC1(O)CCOC2(CCN(Cc3ccccc3C)CC2)C1 (stereo not given) |
| 839 s | O=C(NCc1ccco1)c1ccc(-c2noc(C3CC3)n2)cc1 |
| 918 s | O=C(c1ccc2cc[nH]c2c1)N1CCN(C(=O)c2nnn3c2COC(c2ccc(Cl)cc2)C3)CC1 (stereo not given) |
| 819 s | CCOc1cc(C(=O)Nc2c(-c3ccc(F)cc3)nc3cc(C)ccn23)cc(OCC)c1OCC |
| 802 s | CC(C)NC(=O)Cn1c(=O)c2cnc(-c3ccccc3)nc2n(C)c1=O |
| 889 s | COc1ccc(OC)c(NS(=O)(=O)c2ccc3c(c2)-c2oncc2CO3)c1 |

The next lines start with the molecule.

| Structure (SMILES) | RP-LC retention time |
| --- | --- |
| Cc1ccc(-c2cc3c4nnc(CCC(=O)N5CCN(C6CCCCC6)CC5)n4ccn3n2)cc1C | 682 s |
| O=C(Nc1ccc(N2CCN(C3CCCC3)C2=O)nc1)c1ccc(Br)cc1 | 876 s |
| O=C(c1ccncn1)N1C[C@@H](COCC2CC2)[C@H](c2ccccn2)C1 | 604 s |
| Cc1nn(-c2ccc(-c3ccccc3)nn2)c(C)c1S(=O)(=O)N1CCC(C)CC1 | 1160 s |
| CCOc1nc2ccccc2nc1N1CCCC(C(=O)NCc2ccccc2Cl)C1 (stereo not given) | 1220 s |
| Cc1nn(-c2nc(-c3ccc(Cl)cc3)cs2)c(C)c1CC(=O)N1CCCCCC1 | 793 s |
| CCn1cccc1-c1nc(C)c(C(=O)NCCc2ccc(OC)c(OC)c2)s1 | 998 s |
| Cn1ccc2cc(S(=O)(=O)N3CCC(C(=O)NC4CCN(Cc5ccccc5)CC4)CC3)ccc21 | 666 s |
| CCc1nc2cc(N3CCC(C(=O)N(C)Cc4ccco4)CC3)cnc2nc1CC | 755 s |
| CC1CC(C)OP(=O)(OCCC#N)O1 (stereo not given) | 650 s |
| CNC(=O)[C@@H]1CN(C(=O)c2ccn(C)n2)C[C@H]1COC | 535 s |
| Cc1cccc(Sc2nccnc2N2CCCC(C(=O)Nc3ccc(Br)cc3)C2)c1 (stereo not given) | 1290 s |
| Cn1c(=O)n(CC(=O)N2CCCCCC2)c(=O)c2cnc(-c3ccc(Cl)cc3)nc21 | 1120 s |
| C#CCSc1nc2sc(C)c(C)c2c(=O)n1C | 983 s |
| O=c1c(S(=O)(=O)N2CCCCCC2)cccn1Cc1ccc(F)cc1 | 933 s |
| COc1ccc(Cc2nc3nccc(-c4cc5ccccc5o4)n3n2)cc1 | 1090 s |
| Cc1cccc(NC(=O)c2cc(C(C)(C)C)n3nccc3n2)c1 | 1240 s |
| COc1ccc2c(c1)CCc1sc(NC(=O)c3ccc(C)cc3)nc1-2 | 1150 s |
| O=C(Cc1nnc(-c2ccc3ncccc3c2)o1)NCCC1=CCCCC1 | 759 s |

| Structure (SMILES) | RP-LC retention time |
| --- | --- |
| Cc1ccccc1-c1noc(Cn2ccn(-c3ccccc3)c(=O)c2=O)n1 | 834 s |
| O=C(CSc1ncnc2c(-c3ccccc3)c[nH]c12)Nc1ccc2c(c1)OCO2 | 824 s |
| CCCCOc1ccc(-c2cc3c4nnc(CCC(=O)NCc5ccc(F)cc5)n4ccn3n2)cc1 | 952 s |
| Cc1ccc(-n2ncc3c(NCCN4CCOCC4)ncnc32)cc1Cl | 613 s |
| COc1ccccc1CNC(=O)C1CCCN(c2nnc3ccc(Cl)cn23)C1 (stereo not given) | 683 s |
| CCCC(=O)Nc1nc(-c2ccc3c(c2)N(CC)C(=O)CO3)cs1 | 853 s |
| COCCn1cc(CCNC(=O)Nc2ccc(C)c(Cl)c2)c2cccnc21 | 812 s |
| CCCNC(=O)C1CCCN(c2ccc(SCC(=O)Nc3ccccc3C(=O)OC)nn2)C1 (stereo not given) | 705 s |
| COc1ccc(-c2nnc(Cc3nc(-c4ccc(Cl)cc4)no3)o2)cc1OC | 990 s |
| CN(C)CCNC(=O)Cn1cnc2onc(-c3ccc(F)cc3)c2c1=O | 620 s |
| COc1nccc(N2CCC(CC(=O)NCc3cccc(OC)c3OC)CC2)n1 | 607 s |
| Cc1nc(-c2ccccc2)cc2nn(CC(=O)Nc3ccc(F)c(Cl)c3)c(=O)n12 | 1010 s |
| COc1ccc(N2CCN(c3cc(SCC(=O)Nc4ccc(F)cc4C)ncn3)CC2)cc1 | 959 s |
| Cc1nnc2ccc(NC3CCCC3)nn12 | 818 s |
| CCOc1ccc(S(=O)(=O)N2CCCC(C(=O)Nc3ccc(S(N)(=O)=O)cc3)C2)cc1C (stereo not given) | 876 s |
| CC1(C(=O)NCc2ccccc2)Cc2ccccc2C(=O)N1C1CC1 (stereo not given) | 751 s |
| N#Cc1cccc(NC(=O)Cc2csc3nc(-c4ccccc4)cn23)c1 | 782 s |
| CC#CCn1c(N2CCC[C@@H](N)C2)nc2c1c(=O)n(Cc1nc(C)c3ccccc3n1)c(=O)n2C | 670 s |
